The source of these data is paper PMC12136037, “Type II kinase inhibitors that target Parkinson’s disease–associated LRRK2” (Science Advances, 2025).

Assay in all cases: DSF 100 kinase selectivity screen;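 note: compound tested at 20 µM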
Holding throughout (format): binding

Assay [1] concerns the target T1, ~100 representative kinases (Homo sapiens, UniProt Q96SB4).
T1 construct: Recombinant protein kinase domains with a concentration of 2 μM
Conditions: Protein SRPK1; DSF; average of three replicates. The method in brief: (§1)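 Each kinase domain, at 2 μM, is mixed with 20 μM test compound and SYPRO Orange in Hepes (20 mM, pH 7.5) with 500 mM NaCl. Temperature is then raised at 3°C/min and fluorescence-monitored unfolding yields the melting temperature change, ΔTm in degrees Celsius.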

The target in assay [2] is T2, ~100 representative kinases (Homo sapiens, UniProt P54753).
T2 construct: Recombinant protein kinase domains with a concentration of 2 μM
T2 sequence (P54753 34-998): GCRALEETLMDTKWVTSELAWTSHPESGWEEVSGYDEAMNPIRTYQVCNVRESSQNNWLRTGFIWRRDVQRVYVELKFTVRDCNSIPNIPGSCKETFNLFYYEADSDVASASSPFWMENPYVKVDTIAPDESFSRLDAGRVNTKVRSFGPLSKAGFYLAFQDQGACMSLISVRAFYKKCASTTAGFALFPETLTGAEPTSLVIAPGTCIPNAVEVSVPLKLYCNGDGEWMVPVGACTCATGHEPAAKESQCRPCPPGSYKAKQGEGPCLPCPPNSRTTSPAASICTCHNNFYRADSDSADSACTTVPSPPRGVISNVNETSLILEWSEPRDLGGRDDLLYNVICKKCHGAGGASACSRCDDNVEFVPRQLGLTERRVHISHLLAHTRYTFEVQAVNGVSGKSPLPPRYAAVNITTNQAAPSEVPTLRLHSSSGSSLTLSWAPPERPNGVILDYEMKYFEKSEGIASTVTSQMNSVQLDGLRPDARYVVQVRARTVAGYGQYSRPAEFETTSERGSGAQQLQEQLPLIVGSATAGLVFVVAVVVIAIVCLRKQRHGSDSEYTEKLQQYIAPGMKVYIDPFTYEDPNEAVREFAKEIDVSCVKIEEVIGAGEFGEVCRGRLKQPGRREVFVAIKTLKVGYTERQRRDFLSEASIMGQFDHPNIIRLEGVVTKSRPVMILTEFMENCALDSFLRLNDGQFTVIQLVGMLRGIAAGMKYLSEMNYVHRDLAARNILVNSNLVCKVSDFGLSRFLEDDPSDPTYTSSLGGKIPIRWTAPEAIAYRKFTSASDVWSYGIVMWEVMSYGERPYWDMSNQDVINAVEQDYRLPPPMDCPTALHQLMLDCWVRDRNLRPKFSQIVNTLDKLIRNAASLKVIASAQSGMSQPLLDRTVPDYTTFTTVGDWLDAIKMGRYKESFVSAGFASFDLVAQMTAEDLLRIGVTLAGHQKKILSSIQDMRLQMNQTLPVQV
Conditions: Protein EPHB3A; average of three replicates. A digest of the protocol:
as §1

Assay [3] addresses T3, ~100 representative kinases (Homo sapiens, UniProt P55201).
T3 construct: Recombinant protein kinase domains with a concentration of 2 μM
T3 sequence (P55201 1-1214): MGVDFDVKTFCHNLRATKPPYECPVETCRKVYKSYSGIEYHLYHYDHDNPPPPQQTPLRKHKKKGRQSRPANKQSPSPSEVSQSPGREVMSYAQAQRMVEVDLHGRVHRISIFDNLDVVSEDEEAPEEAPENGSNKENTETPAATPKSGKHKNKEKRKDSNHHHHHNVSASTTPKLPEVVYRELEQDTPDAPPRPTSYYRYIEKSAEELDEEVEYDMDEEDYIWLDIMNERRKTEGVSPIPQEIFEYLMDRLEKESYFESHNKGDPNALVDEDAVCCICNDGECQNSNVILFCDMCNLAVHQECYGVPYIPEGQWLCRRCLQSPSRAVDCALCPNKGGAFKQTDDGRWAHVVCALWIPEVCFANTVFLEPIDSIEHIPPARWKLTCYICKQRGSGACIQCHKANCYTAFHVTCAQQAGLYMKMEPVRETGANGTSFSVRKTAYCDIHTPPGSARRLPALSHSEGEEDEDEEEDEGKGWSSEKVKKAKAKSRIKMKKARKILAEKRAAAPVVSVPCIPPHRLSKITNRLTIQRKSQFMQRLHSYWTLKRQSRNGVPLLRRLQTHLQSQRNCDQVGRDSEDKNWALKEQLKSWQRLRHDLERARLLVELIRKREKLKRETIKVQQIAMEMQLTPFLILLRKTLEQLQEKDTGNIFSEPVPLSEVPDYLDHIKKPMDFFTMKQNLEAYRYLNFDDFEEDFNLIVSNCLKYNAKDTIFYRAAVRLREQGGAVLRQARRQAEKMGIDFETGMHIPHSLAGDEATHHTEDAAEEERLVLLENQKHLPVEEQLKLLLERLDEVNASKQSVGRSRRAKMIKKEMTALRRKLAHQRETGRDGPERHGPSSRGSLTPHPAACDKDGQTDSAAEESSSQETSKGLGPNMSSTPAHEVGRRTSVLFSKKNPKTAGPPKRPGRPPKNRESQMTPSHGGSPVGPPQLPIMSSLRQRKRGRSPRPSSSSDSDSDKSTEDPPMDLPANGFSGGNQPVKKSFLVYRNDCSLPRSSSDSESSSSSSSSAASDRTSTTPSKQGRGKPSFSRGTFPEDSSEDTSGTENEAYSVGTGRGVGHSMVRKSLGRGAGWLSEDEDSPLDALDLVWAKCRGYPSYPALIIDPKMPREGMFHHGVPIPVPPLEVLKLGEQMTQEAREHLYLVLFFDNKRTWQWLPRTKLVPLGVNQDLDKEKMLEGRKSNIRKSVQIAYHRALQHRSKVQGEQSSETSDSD
Conditions: Protein BRPF1; average of three replicates. The method in brief:
as §1

T1 sequence (Q96SB4 whole entry, the tested form may be a part): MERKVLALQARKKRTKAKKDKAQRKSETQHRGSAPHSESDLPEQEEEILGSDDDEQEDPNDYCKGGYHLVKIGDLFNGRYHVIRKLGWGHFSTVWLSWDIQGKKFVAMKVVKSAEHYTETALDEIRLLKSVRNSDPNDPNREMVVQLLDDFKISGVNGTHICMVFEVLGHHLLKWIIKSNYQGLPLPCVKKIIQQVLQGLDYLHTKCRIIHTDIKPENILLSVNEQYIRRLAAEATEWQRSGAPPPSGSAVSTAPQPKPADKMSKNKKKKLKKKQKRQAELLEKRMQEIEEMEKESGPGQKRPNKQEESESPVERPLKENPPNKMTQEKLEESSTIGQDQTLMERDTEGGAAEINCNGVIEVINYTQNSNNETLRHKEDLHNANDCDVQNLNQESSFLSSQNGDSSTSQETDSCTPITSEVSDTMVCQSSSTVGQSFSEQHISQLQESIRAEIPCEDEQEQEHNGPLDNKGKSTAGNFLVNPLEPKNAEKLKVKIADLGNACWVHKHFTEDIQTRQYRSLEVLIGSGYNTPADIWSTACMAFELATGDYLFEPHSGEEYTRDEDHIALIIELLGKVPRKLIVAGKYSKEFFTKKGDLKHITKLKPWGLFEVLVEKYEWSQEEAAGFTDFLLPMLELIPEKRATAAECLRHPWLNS

For the compound `CC(=O)N1CCN(c2nc(Cl)nc3[nH]cc(-c4cccc(NC(=O)Nc5cc(C(C)(C)C)nn5-c5ccc(C)cc5)c4)c23)CC1` [Compound 31], the dTm in assay [1] was 7.78 K; in assay [2], -1.56 K; in assay [3] it was -0.70 K.

Turning to `CCSc1nc(NC)c2c(-c3cccc(NC(=O)Nc4cc(C(C)(C)C)nn4-c4ccc(C)cc4)c3)c[nH]c2n1` [Compound 32], the dTm is recorded as 0.80 K in assay [1], -3.33 K in assay [2] and -0.60 K in assay [3].

Consider `COc1cc(C(=O)N2CCOCC2)c(F)cc1Nc1nc(N(C)C)c2c(Cl)c[nH]c2n1` [Compound 36], for which the dTm in assay [1] is on record as 3.22 K; in assay [2], -1.35 K; in assay [3], -1.63 K.

Take `COc1cc(S(C)(=O)=O)ccc1Nc1nc(N(C)C)c2c(Cl)c[nH]c2n1` [Compound 37]: the figures for the dTm in assay [1], in assay [2] and in assay [3] were 0.39 K, -1.89 K and -0.21 K, respectively.

On to `COc1cc2c(Oc3ccc(NC(=O)C4(C(=O)Nc5ccc(F)cc5)CC4)cc3F)ccnc2cc1OCCCN1CCOCC1` [Foretinib, reference compound], for which the results for the dTm in assay [1], in assay [2] and in assay [3] were 7.77 K, 13.52 K and 0.26 K, respectively.

On to `CCNc1nc(Nc2cc(F)c(C(=O)N3CCOCC3)cc2OC)ncc1C(F)(F)F` [GNE-7915], for which the dTm is listed as 0.15 K in assay [1], 0.08 K in assay [2] and -1.14 K in assay [3].

Turning to `Cc1ccc(C(=O)Nc2ccc(CN3CCN(C)CC3)c(C(F)(F)F)c2)cc1C#Cc1cnc2[nH]ncc2c1` [GZD-824, reference compound], the dTm was 13.60 K in assay [1], 15.76 K in assay [2] and -0.65 K in assay [3].

Take `C[C@@H]1CN(c2cc(-c3n[nH]c4ccc(OC5(C)CC5)cc34)ncn2)C[C@H](C)O1` [MLi2]: the values for the dTm in assay [1], in assay [2] and in assay [3] were 0.11 K, 0.06 K and -1.36 K, respectively.

`Cn1cc(-c2c[nH]c3ncnc(N4CCOCC4)c23)cc1C#N` [PFE-360]: the dTm is on record as -0.23 K in assay [1], 0.07 K in assay [2] and -1.30 K in assay [3].

For the compound `CNC(=O)c1cc(Oc2ccc(NC(=O)Nc3cc(C(C)(C)C)nn3-c3ccc4ncccc4c3)c(F)c2)ccn1` [Rebastinib, reference compound], the dTm in assay [1] is listed as 14.66 K; in assay [2] it was -2.84 K; in assay [3], 1.88 K.
